This is an account of results in patent US20100298557A1, “PYRAZOLOPYRIMIDINE COMPOUND” (Taisho Pharmaceutical Co., Ltd, priority 2006, published 2010).

Experiment [1] concerns Human mast cell line LAD cells. Nature of the experiment: Degranulation test using human mast cell line LAD cells. The experiment is classed as cell-based. As to conditions: IgE-sensitized LAD cells, anti-human IgE stimulation, β-hexosaminidase release, read-out: degranulation inhibitory activity IC50. The method, then:
Human mast cell line LAD cells were sensitized with human IgE (Cosmo Bio; final concentration 1 μg/ml) overnight. The cells were harvested, and then washed with PBS (Invitrogen) and washed again with Tyrode's buffer solution (Sigma) containing 0.1% BSA (Sigma). The cells were seeded into a 96-well plate at 10^5 cells/well and then the compound (0.1% final concentration DMSO solution) was added, followed by incubation at 37° C. for 15 minutes. Rabbit anti-human IgE (Dako Japan; final concentration 10 μg/ml) or control Ig (Dako Japan; final concentration 10 μg/ml) was added, followed by incubation at 37° C. for 30 minutes. The supernatant was recovered and p-nitrophenyl-2-acetamido-2-deoxy-β-D-glucopyranoside (Sigma; final concentration 4 mM), a substrate of β-hexosaminidase which is an index of degranulation, was added, followed by incubation at 37° C. for 45 minutes. Glycine (Wako; final concentration 0.2 M, pH 10.4) was added and the reaction was terminated. Then, the absorbance at 405 nm was measured.
The inhibition rate (%) was calculated as (anti-IgE antibody degranulation rate—compound-added group degranulation rate)/(anti-IgE antibody degranulation rate—control antibody degranulation rate)×100. The IC50 value was calculated from the inhibition rate at each concentration and used as an index of inhibitory activity.

The target in a further experiment is T1, Abl (Homo sapiens, UniProt P00519).
T1 construct: purchased Wako Pure Chemical Industries
T1 sequence (P00519 whole entry, species assumed): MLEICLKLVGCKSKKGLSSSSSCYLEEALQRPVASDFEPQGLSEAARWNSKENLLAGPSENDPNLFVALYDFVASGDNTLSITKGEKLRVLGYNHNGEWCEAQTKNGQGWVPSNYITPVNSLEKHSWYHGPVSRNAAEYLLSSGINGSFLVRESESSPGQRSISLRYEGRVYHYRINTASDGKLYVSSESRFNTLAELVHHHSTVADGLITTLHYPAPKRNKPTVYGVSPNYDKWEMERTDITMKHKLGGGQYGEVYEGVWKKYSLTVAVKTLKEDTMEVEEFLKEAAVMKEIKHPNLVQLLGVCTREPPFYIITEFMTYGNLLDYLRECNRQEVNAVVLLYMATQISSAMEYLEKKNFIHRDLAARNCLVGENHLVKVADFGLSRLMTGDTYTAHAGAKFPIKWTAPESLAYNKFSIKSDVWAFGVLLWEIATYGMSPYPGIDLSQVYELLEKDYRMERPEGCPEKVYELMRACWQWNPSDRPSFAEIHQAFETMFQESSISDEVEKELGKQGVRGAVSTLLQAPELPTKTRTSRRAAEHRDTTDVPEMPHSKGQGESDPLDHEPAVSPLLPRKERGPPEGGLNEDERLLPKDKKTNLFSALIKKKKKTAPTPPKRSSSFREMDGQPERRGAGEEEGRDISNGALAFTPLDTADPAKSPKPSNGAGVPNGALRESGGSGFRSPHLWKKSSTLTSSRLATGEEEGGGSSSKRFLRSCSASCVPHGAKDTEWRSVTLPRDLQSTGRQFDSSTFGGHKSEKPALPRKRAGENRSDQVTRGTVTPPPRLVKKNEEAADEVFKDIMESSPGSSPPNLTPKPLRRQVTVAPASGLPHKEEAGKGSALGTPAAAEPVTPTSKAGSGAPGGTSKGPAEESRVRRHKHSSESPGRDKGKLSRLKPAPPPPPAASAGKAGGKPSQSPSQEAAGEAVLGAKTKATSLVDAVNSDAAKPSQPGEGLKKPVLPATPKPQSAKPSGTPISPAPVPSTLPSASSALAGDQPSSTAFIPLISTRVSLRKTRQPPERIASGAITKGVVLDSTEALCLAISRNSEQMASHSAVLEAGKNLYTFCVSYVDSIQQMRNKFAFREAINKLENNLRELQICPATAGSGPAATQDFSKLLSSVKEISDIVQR
Nature of the experiment: Abl inhibition test. The experiment is classed as biochemical. Particulars: Abltide substrate, ATP 6 μM, [γ-33P]ATP, 40 minutes room temperature; read-out: Abl inhibitory activity IC50. The protocol: 5 ng/5 μl/well of an Abl (Wako Pure Chemical Industries) solution, 30 μl of an Abltide substrate peptide solution (Wako Pure Chemical Industries; final concentration 5 μM) and 5 μl of a test substance solution were added to a 96-well plate (Corning), followed by incubation at room temperature for 15 minutes. Then, 10 μl of an ATP mixture (ATP: Oriental Yeast, final concentration 6 μM, [γ-33P]ATP: GE Healthcare Biosciences, 0.06 μCi/well, MgAcetate: Cosmo Bio, final concentration 10 mM) was added, followed by incubation at room temperature for 40 minutes. The Abl solution was prepared using a kinase buffer (20 mM MOPS pH 7.0, 1 mM EDTA, 0.1% β-mercaptoethanol, 0.01% Brij-35, 5% glycerol, 1 mg/ml BSA). The substrate peptide solution and the ATP mixture were prepared using 8 mM MOPS pH 7.0 and 0.2 mM
EDTA. The test substance solution was made by dissolving the test substance in DMSO at each concentration. The final concentration of DMSO was 1%. The reaction was terminated by adding 100 μl of a 100 mM phosphoric acid solution as a reaction terminator. Then, the total reaction solution was transferred to a 96-well MultiScreen plate (Millipore) and washed with 200 μl of 100 mM phosphoric acid three times. After drying, 20 μl of MicroScint-O (PerkinElmer) was added and the radioactivity was measured by TopCount (PerkinElmer). After subtracting the radioactivity in the well to which the Abltide substrate peptide was not added from each radioactivity, the ratio of the radioactivity when the test substance was added to the radioactivity when the test substance was not added was determined. The IC50 value was calculated from the inhibition rate at each concentration and used as an index of inhibitory activity.

A further experiment has as its target T2, Syk (Homo sapiens, UniProt P43405).
T2 construct: purchased Wako Pure Chemical Industries
Nature of the experiment: Syk inhibition test. As to conditions: poly(L-glu-L-tyr) substrate, ATP 5 μM, [γ-33P]ATP, 30 minutes room temperature; read-out: Syk inhibitory activity IC50. The experiment is classed as biochemical. The method, then:
10 ng/10 μl/well of a Syk (Wako Pure Chemical Industries) solution, 15 μl of a poly(L-glu-L-tyr) substrate peptide solution (Sigma, final concentration 5 μM), 20 μl of an ATP mixture (ATP: Oriental Yeast, final concentration 5 μM, [γ-33P]ATP: GE Healthcare Biosciences, 0.1 μCi/well) and 5 μl of a test substance solution were added to a 96-well Corning reaction plate, followed by incubation at room temperature for 30 minutes. An assay buffer containing 50 mM Tris pH 7.5, 10 mM MgCl2, 0.1 mM Na3VO4, 1 mM DTT, 0.01% CHAPS and 100 μg/ml BSA was used. The test substance solution was made by dissolving the test substance in DMSO at each concentration. The final concentration of DMSO was 1%. The reaction was terminated by adding 100 μl of a 120 mM phosphoric acid solution as a reaction terminator. Then, the total reaction solution was transferred to MultiScreen (Millipore) and washed with 200 μl of 100 mM phosphoric acid four times.
After drying, 20 μl of MicroScint-O (PerkinElmer) was added and the radioactivity was measured by TopCount (PerkinElmer). The ratio of the radioactivity when the test substance was added to the radioactivity when the test substance was not added was determined. The IC50 value was calculated from the inhibition rate at each concentration and used as an index of inhibitory activity.

Turning to `CSc1n[nH]c2nc(Nc3ccc(N4CCOCC4)cc3)nc(NC3CC3)c12` [Compound 13, N^4-Cyclopropyl-3-(methylsulfanyl)-N^6-(4-morpholin-4-ylphenyl)-1H-pyrazolo[3,4-d]pyrimidine-4,6-diamine], the IC50 in experiment [1] is not above 100 nM.
On to `CS(=O)(=O)c1n[nH]c2nc(Nc3ccc(-c4ccc(C(=O)O)cc4)cc3)nc(NC3CC3)c12` [Compound 227], for which the IC50 at Abl was not above 50 nM.
Take `CC(C)(C)Nc1nc(Nc2ccc(N3CCOCC3)cc2)nc2[nH]nc(S(C)(=O)=O)c12` [Compound 55]: the IC50 on Abl was not above 10 nM.
Consider `CS(=O)(=O)c1n[nH]c2nc(Nc3ccc(N4CCCC(CO)C4)cc3)nc(NC3CC3)c12` (stereo not shown) [Compound 130], for which the IC50 in experiment [1] is not above 100 nM; at Abl, not above 10 nM; on Syk, not above 200 nM.
For `CS(=O)(=O)c1n[nH]c2nc(Nc3ccc(N4CCOCC4)cc3)nc(NCCCCN)c12` [Compound 107] the same measures were not above 100 nM, not above 50 nM and not above 200 nM.
Take `CS(=O)(=O)c1n[nH]c2nc(Nc3ccc(N4CCNCC4)cc3)nc(NC3CC3)c12` [Compound 74]: the IC50 in experiment [1] is not above 100 nM; on Abl, not above 10 nM; on Syk, not above 200 nM.
As to `CS(=O)(=O)c1n[nH]c2nc(Nc3ccc(N4CCOCC4)cc3)nc(N[C@H]3CC[C@@H](N)CC3)c12` [Compound 117, N^4-(cis-4-Aminocyclohexyl)-3-(methylsulfonyl)-N^6-(4-morpholin-4-ylphenyl)-1H-pyrazolo[3,4-d]pyrimidine-4,6-diamine], the IC50 on Abl was not above 10 nM.
The same measure, in the same setting: as for `CSc1n[nH]c2nc(Nc3ccc(N4CCOCC4)cc3)nc(NCCc3c[nH]cn3)c12` [Compound 200], the figure is not above 10 nM; as for `CSc1n[nH]c2nc(Nc3ccc(N4CCOCC4)cc3)nc(Nc3ccc4[nH]c(O)nc4c3)c12` [Compound 208], not above 50 nM.
The same measure, in the same setting: as for `CSc1n[nH]c2nc(Nc3ccc(N4CCOCC4)cc3)nc(Nc3ccc4nc[nH]c4c3)c12` [Compound 192], the figure is not above 50 nM; as for `CS(=O)(=O)c1n[nH]c2nc(Nc3ccc(N4CCOCC4)cc3)nc(NCCCC(N)=O)c12` [Compound 60], not above 50 nM; as for `CNS(=O)(=O)c1ccc(Nc2nc(NC3CC3)c3c(S(C)(=O)=O)n[nH]c3n2)cc1` [Compound 152], not above 10 nM.
`CS(=O)(=O)c1n[nH]c2nc(Nc3ccc(N4CCOCC4)cc3)nc(NC3CCCC3)c12` [Compound 103]: the IC50 on Abl is not above 50 nM.
With `CS(=O)(=O)c1n[nH]c2nc(Nc3ccc(N4CCC(CO)CC4)cc3)nc(NC3CC3)c12` [Compound 126], at Abl, the IC50 was not above 10 nM.
On the same count and under the same terms, as for `CNCCCCNc1nc(Nc2ccc(N3CCOCC3)cc2)nc2[nH]nc(SC)c12` [Compound 116], the figure is not above 50 nM; as for `N[C@H]1CC[C@@H](Oc2nc(Nc3ccc(N4CCOCC4)cc3)nc3[nH]ncc23)CC1` [Compound 217, cis-4-(4-Aminocyclohexyloxy)-N-(4-morpholinophenyl)-1H-pyrazolo[3,4-d]pyrimidin-6-amine], not above 10 nM.
With `C[S+]([O-])c1n[nH]c2nc(Nc3ccc(N4CCOCC4)cc3)nc(NC3CC3)c12` (stereo not shown) [Compound 4, N^4-Cyclopropyl-3-(methylsulfinyl)-N^6-(4-morpholin-4-ylphenyl)-1H-pyrazolo[3,4-d]pyrimidine-4,6-diamine], the IC50 in experiment [1] is not above 100 nM.
In the case of `CCSc1n[nH]c2nc(Nc3ccc(N4CCOCC4)cc3)nc(N[C@H]3CC[C@H](N)CC3)c12` [Compound 115], the IC50 was not above 10 nM at Abl and not above 200 nM at Syk.
As to `CSc1n[nH]c2nc(Nc3ccc(N4CCOCC4)cc3)nc(NCCCCN)c12` [Compound 102], the concentration for half-maximal inhibition (IC50) is not above 100 nM in experiment [1], not above 50 nM at Abl and not above 200 nM at Syk.
As for `CC(C)N1CCN(c2ccc(Nc3nc(NC4CC4)c4c(S(C)(=O)=O)n[nH]c4n3)cc2)CC1` [Compound 138], the IC50 was not above 100 nM in experiment [1] and not above 200 nM on Syk.
Take `CS(=O)(=O)c1n[nH]c2nc(Nc3ccc(N4CCOCC4)cc3)nc(Nc3ccccc3C(N)=O)c12` [Compound 188]: the IC50 at Abl is not above 50 nM.
The same measure, in the same setting: next, `CS(=O)(=O)c1n[nH]c2nc(Nc3ccc(N4CCCC(C(N)=O)C4)cc3)nc(NC3CC3)c12` (stereo not shown) [Compound 132]: not above 10 nM.
For the molecule `Cc1cc(Nc2nc(NC3CC3)c3c(S(C)(=O)=O)n[nH]c3n2)ccc1N1CCOCC1` [Compound 38], on Abl, the IC50 was not above 50 nM.
Consider `CS(=O)(=O)c1n[nH]c2nc(Nc3ccc(N4CCS(=O)(=O)CC4)cc3)nc(NC3CC3)c12` [Compound 134], for which the IC50 in experiment [1] is not above 100 nM; on Abl it was not above 10 nM; on Syk it was not above 200 nM.
For the molecule `CCSc1n[nH]c2nc(Nc3ccc(N4CCOCC4)cc3)nc(NCCCCN)c12` [Compound 114], the IC50 on Abl was not above 50 nM; at Syk, not above 200 nM.
Regarding `CNC(=O)COc1cccc(Nc2nc(NC3CC3)c3c(S(C)(=O)=O)n[nH]c3n2)c1` [Compound 150], on Abl, the IC50 is not above 50 nM.
Same read-out and setting: next, `CS(=O)(=O)c1n[nH]c2nc(Nc3ccc4[nH]cnc4c3)nc(NC3CC3)c12` [Compound 21]: not above 50 nM; `CCSc1n[nH]c2nc(Nc3ccc(N4CCOCC4)cc3)nc(NC3CC3)c12` [Compound 108]: not above 50 nM; `CSc1n[nH]c2nc(Nc3ccc(N4CCOCC4)cc3)nc(Nc3ccc4cn[nH]c4c3)c12` [Compound 206]: not above 50 nM.
Same read-out and setting: next, `CC1CN(C(=O)c2ccc(Nc3nc(NC4CC4)c4c(S(C)(=O)=O)n[nH]c4n3)cc2)CC(C)O1` (stereo not shown) [Compound 240]: not above 50 nM.
Turning to `CS(=O)(=O)c1n[nH]c2nc(Nc3ccc(N4CCC(=O)CC4)cc3)nc(NC3CC3)c12` [Compound 88], the IC50 in experiment [1] is not above 100 nM.
As for `CCN1CCN(c2ccc(Nc3nc(NC4CC4)c4c(S(C)(=O)=O)n[nH]c4n3)cc2)CC1` [Compound 135], the figures for the IC50 (in experiment [1]; on Syk) were not above 100 nM and not above 200 nM, respectively.
As for `CS(=O)(=O)c1n[nH]c2nc(Nc3ccc(N4CCCC(O)C4)cc3)nc(NC3CC3)c12` (stereo not shown) [Compound 78], on Abl, the IC50 was not above 10 nM.
In the case of `CS(=O)(=O)c1n[nH]c2nc(Nc3ccc(N4CCN(S(C)(=O)=O)CC4)cc3)nc(NC3CC3)c12` [Compound 146], the values for the IC50 on Abl and at Syk were not above 10 nM and not above 200 nM, respectively.
For `N[C@H]1CC[C@@H](Nc2nc(Nc3ccc(N4CCOCC4)cc3)nc3[nH]ncc23)CC1` [Compound 216, N^4-(cis-4-Aminocyclohexyl)-N^6-(4-morpholinophenyl)-1H-pyrazolo[3,4-d]pyrimidine-4,6-diamine], on Abl, the IC50 is not above 10 nM.
The same measure, in the same setting: next, `CSc1n[nH]c2nc(Nc3ccc(N4CCOCC4)cc3)nc(NCCCCCN)c12` [Compound 110]: not above 50 nM; `CC(C)Sc1n[nH]c2nc(Nc3ccc(N4CCOCC4)cc3)nc(N[C@H]3CC[C@@H](N)CC3)c12` [Compound 119]: not above 10 nM.
